Source: patent US5281710A, “Dynemicin analogs: synthesis, methods of preparation and use” (The Scripps Research Institute, priority 1992, dated 1994)
“Also recorded” adds a separate entry of the source. Read-outs that look alike come from different tables or passages of the source.

Columns and labels:
φX174 Form I DNA = experiment: φX174 supercoiled DNA cleavage, agarose gel; assay type: biochemical; conditions: for DNA cleavage potency: pH 8.5, 1000 and 100 μM
Description: The ethereal solution of Compound 40 produced by the LiAlH4 reduction of Compound 21 (39 mg, 0.10 mmol) was evaporated in vacuo to dryness and the residue dissolved in THF (4 mL) to give a 25 mM solution of Compound 40, assuming complete conversion of Compound 21. […]
Thus, a vial containing a 50 micromolar per base pair solution […] of the same buffer solution and 2.0 microliters of a 5.0 millimolar ethanol solution of Compound 40.
[…] A 2.0 microliter portion of glycerol loading buffer solution containing bromothymol blue indicator was added to each vial. A 10 microliter aliquot was then drawn from each. Gel electrophoresis analysis of the aliquots was performed using a 1.0 percent agarose gel with ethidium bromide run at 115 volts for 1 hour. DNA cleavage was indicated by the formation of nicked relaxed circular DNA (form II) or linearized DNA (form III), which was detected by visual inspection of the gel under 310 nanometer ultraviolet light using ethidium bromide.

Chemical stability = assay type: physicochemical
cancer cell lines = experiment: cells; assay type: cell-based; conditions: Average data obtained from 5~10 cell lines; read-out: IC50 (average)
Description: (§1) In addition to the screening already discussed, several of the before-described compounds and chimeras were screened against several or all of a panel of ten to twenty-five cancerous cell lines as target cells and seven "normal" cell preparations. This screening utilized a sulforhodamine B cytotoxidity assay as discussed below.
SULFORHODAMINE B CYTOTOXICITY ASSAY
a. Stock drug solutions were prepared by dissolving drug in the appropriate solvent (determined during chemical characterization studies) and sterile filtering the drug-solvent solution through a sterile 0.2μ filter unit. An aliquot was taken from each filtered drug solution and the O.D. was measured to determine the drug concentration.
f. Incubate (37° C., 5-10 percent CO2 in humidified incubator) plates for a total of 72 hours. Check plates at 24 hour intervals microscopically for signs of cytotoxicity.
(§2) IC50 values; i.e., the concentration of Compound required to kill one-half of the treated cells, were then calculated.
All other cells or cell lines were obtained from the American Type Culture Collection (ATCC) (all except CHO cells are human or mouse cancer cell lines as described by the ATC).
Tables 1 and 2 herein below provide average IC50 data from five to all ten of the above cancer cells lines for fused ring enediyne compounds disclosed herein. Those tables provide a generic structure and a description of the R group of that generic structure for each compound. Compound numbers as noted hereinbefore are also provided. Table 3 contains data for two fused-ring enediyne compounds (Compounds 47 and 120) as well as data for six chimers. Table 4 contains cancer cell and noraml cell cytotoxicity data for one select fused ring enediyne, Compound 153 against a number of "normal" cell preparations and tumor cell lines. Table 5 contains cancer cell and normal cell cytotoxicity data for another fused ring enediyne, Compound 250 against a similar panel of cells.

[1] = test system: MCF-7 breast carcinoma cells; experiment: Sulforhodamine B cytotoxicity, MCF-7; assay type: cell-based; conditions: Table 7, MCF-7, read-out: Cytotoxicity (IC50)
Description: as §1, §2

[2] = test system: HT-29 colon carcinoma cells; experiment: Sulforhodamine B cytotoxicity, HT-29; assay type: cell-based; conditions: Table 7, HT-29, read-out: Cytotoxicity (IC50)
Description: as §1, §2

[3] = test system: P-388 mouse lymphoma cells; experiment: Sulforhodamine B cytotoxicity, P-388; assay type: cell-based; conditions: Table 7, P-388, read-out: Cytotoxicity (IC50)
Description: as §1, §2

[4] = test system: MOLT-4 (Leukemia) cell line; experiment: cells; assay type: cell-based
Description: as §1, §2

SK-Mel-28 melanoma cells = experiment: Sulforhodamine B cytotoxicity, SK-Mel-28; assay type: cell-based
Description: as §1, §2

[5] = test system: NHDF normal human dermal fibroblasts; experiment: in vitro; assay type: cell-based; conditions: for IC50: NHDF, read-out: Range of Average IC50 Values, NHDF
Description: as §1, §2
NHDF Normal human dermal fibroblasts

[6] = test system: CHO Chinese hamster ovary cells; experiment: Sulforhodamine B cytotoxicity, CHO; assay type: cell-based; conditions: Table 7, CHO
Description: as §1, §2

[7] = test system: H-322 lung carcinoma cells; experiment: Sulforhodamine B cytotoxicity, H-322; assay type: cell-based; conditions: Table 7, H-322
Description: as §1, §2

[8] = test system: HL-60 promyeocytic leukemia cells; experiment: Sulforhodamine B cytotoxicity, HL-60; assay type: cell-based
Description: as §1, §2

[9] = test system: Ovcar-3 ovarian carcinoma cells; experiment: Sulforhodamine B cytotoxicity, Ovcar-3; assay type: cell-based; conditions: read-out: Cytotoxicity (IC50)
Description: as §1, §2

[10] = test system: Capan-1 pancreatic carcinoma cells; experiment: Sulforhodamine B cytotoxicity, Capan-1; assay type: cell-based
Description: as §1, §2

[11] = test system: UCLA P-3 non-small cell lung carcinoma cells; experiment: Sulforhodamine B cytotoxicity, UCLA-P3; assay type: cell-based, human; conditions: read-out: Cytotoxicity (IC50)
Description: as §1, §2
UCLA P-3 Dr. D. Morton, University of California, […]

[12] = test system: MCF-7(ADR) breast carcinoma cells; experiment: Sulforhodamine B cytotoxicity, MCF-7/ADR; assay type: cell-based; conditions: Homo sapiens, NCI/ADR-RES, Adriamycin resistant
Description: as §1, §2

[13] = test system: 93 base-pair Sal I - Sph I double-stranded DNA fragment of pBR322; experiment: DNase I footprinting of oligosaccharide glycosides; assay type: binding; conditions: 37° C., 30 minutes pre-incubation
Source text: Footprinting studies the O-methyl glycosides of saccharides A, an analog of C, F, G and H, Compounds A-1, C'-1, F-1, G-1 and H-1, respecitvely, as shown below, were designed to probe these questions.
The oligosaccharides A-1, C'-1, F-1, G-1 and H-1 were obtained by chemical synthesis following procedures similar to those discussed before. The 93 base-pair Sal I - Sph I double-stranded DNA fragment of pBR322 was obtained enzymatically and was [5-^32 P]-labeled on one strand. pBR322 DNA was cleaved at the unique Sal I site, dephosphorylated using calf intestine phosphatase, (5'-^32 P]-phosphorylated using T4 polynucletide kinase and [g-^32 P] ATP (4.5 ^m Ci/pmol) , and cleaved again at the unique Sph I site. These precursors generated a 93 base-pair double-stranded fragment, (5'-^32 P)-labeled at the Sal I end, which was purified by gel electrophosresis in a nondenaturing 10 percent polyacrylamide gel and subsequent column chromatography on Sephadex G-25. The oligosaccharides were pre-incubated with the DNA fragment at 37° C. for 30 minutes and DNase I was added to cleave the DNA and generate footprinting patterns by autoradiography.
The degree of protection against DNase I digestion offered by both the natural and unnatural stereoisomers was determined by comparing the amount of radioactivity in adjacent lanes along the electrophoresis gel. […]

[14] = 5.0 mM, pH 8.5 and 9.0, 48 hours, 37° C.
[15] = Homo sapiens, SK-MEL-28, SK-Mel-28, read-out: IC50
[16] = Homo sapiens, HL-60, HL-60, read-out: IC50
[17] = Homo sapiens, CAPAN-1, Capan-1, read-out: IC50
[18] = 10 mM, pH 8.5, 48 hours, 37° C.

For `COc1ccc2c(c1)N(C(=O)Oc1ccccc1)[C@H]1C#C/C=C\C#C[C@]3(O)CCC[C@]14O[C@]243` (relative stereo) [Compound 41], the DNA cleavage (φX174 Form I DNA; 2 mM, pH 5.0) was “also cleaved DNA”, the chemical stability (Chemical stability) was “reasonable stability under neutral and basic conditions; also recorded: cyclized rapidly under acidic conditions” and the IC50 (cancer cell lines) was 20 µM.
In the case of `CC(C)(COC(=O)N1c2ccccc2[C@@]23O[C@]24CCC[C@H]3C#C/C=C\C#C[C@H]14)S(=O)(=O)c1ccccc1` (relative stereo) [Compound 429], the IC50 ([1]; Homo sapiens, MCF7, 72 h) is reported as 25 µM, the IC50 ([2]; Homo sapiens, HT-29, 72 h) is reported as 25 µM and the IC50 ([3]; Mus musculus, P388) is reported as 13 µM. The IC50 ([4]; Homo sapiens, MOLT-4, Table 7, Molt-4, read-out: Cytotoxicity (IC50)) was 100 µM, the IC50 (SK-Mel-28 melanoma cells; Homo sapiens, SK-MEL-28, Table 7, SK-Mel-28, read-out: Cytotoxicity (IC50)) was < 100 µM and the “Cytotoxicity (IC50)” value ([5]; Table 7, NHDF) was “Non-Toxic”. The “Cytotoxicity (IC50)” value [6] was “Non-Toxic”, the IC50 ([7]; NCI-H322, read-out: Cytotoxicity (IC50)) was 50 µM and the DNA cleavage (φX174 Form I DNA; [14]) was “no DNA cleaving ability”. For the same molecule, the IC50 ([8]; Homo sapiens, HL-60, Table 7, HL-60, read-out: Cytotoxicity (IC50)) was 25 µM, the IC50 ([9]; Homo sapiens, OVCAR-3, Table 7, Ovcar-3) was 50 µM and the IC50 ([10]; Homo sapiens, CAPAN-1, Table 7, Capan-1, read-out: Cytotoxicity (IC50)) was 50 µM. For the same molecule, the IC50 ([11]; Homo sapiens, UCLA P-3, Table 7, UCLA-P3) was 50 µM.
For `O=C(OCCS(=O)(=O)c1ccccc1)N1c2ccccc2[C@@]23O[C@]24CCC[C@H]3C#C/C=C\C#C[C@H]14` [(+)-45], the IC50 (SK-Mel-28 melanoma cells; [15]) was 6.3 µM, the DNA cleavage potency (φX174 Form I DNA) was “comparable potencies” and the IC50 [8, 16] was > 0.098 µM. For the same molecule, the IC50 [10, 17] was 0.39 µM and the IC50 [12] was 0.78 µM.
For `O=C(OCCS(=O)(=O)c1ccccc1)N1c2ccccc2[C@]23O[C@@]24CCC[C@@H]3C#C/C=C\C#C[C@@H]14` [(-)-45], the IC50 ([4]; Homo sapiens, MOLT-4, Molt-4 leukemia cell line, read-out: IC50) was 0.1 µM, the IC50 (SK-Mel-28 melanoma cells; [15]) was 6.3 µM and the DNA cleavage potency (φX174 Form I DNA) was “comparable potencies”. The IC50 [8, 16] was 0.78 µM, the IC50 [10, 17] was 1.6 µM and the IC50 [12] was 1.6 µM.
`N.N.[Cl][Pt][Cl]` [Cis-Platin] showed an IC50 ([5]; control drugs) of 50 µM.
With `COC12C#C/C=C\C#CC3NC4=CC(=O)C=CC45OC15C3(O)CCC2` (stereo not shown) [Compound 58] the DNA cleavage (φX174 Form I DNA; 5 mM, pH 8.0, 24 hours) was “diminished activity against DNA” and the chemical stability (Chemical stability) was “stable molecules”.
In the case of `COC12C#C/C=C\C#CC3N(C(=O)Oc4ccccc4)C4=CC(=O)C=CC45OC15C3(O)CCC2` (stereo not shown) [Compound 62], the DNA cleavage (φX174 Form I DNA; 5 mM, pH 8.0, 24 hours) is reported as “diminished activity against DNA” and the chemical stability (Chemical stability) is reported as “stable molecules”.
With `OC12CCCC3C#Cc4ccccc4C#CC1Nc1ccccc1C32O` (stereo not shown) [Compound 76b] the DNA cleavage (φX174 Form I DNA; [18]) was “converted supercoiled .phi.X174 form I DNA” and the chemical stability (Chemical stability) was “cyclized spontaneously at 25 °C in the presence of 1,4-cyclohexadiene”.
For `OC12CCCC3C#Cc4cc5ccccc5cc4C#CC1Nc1ccccc1C32O` (stereo not shown) [Compound 87b], the DNA cleavage (φX174 Form I DNA; [18]) was “converted supercoiled .phi.X174 form I DNA” and the chemical stability (Chemical stability) was “stable in the presence of 1,4-cyclohexadiene, but cycloaromatized at elevated temperature (65° C., two hours)”.
For `CC(COC(=O)N1c2ccccc2C23OC24CCCC3C#CC=CC#CC14)S(=O)(=O)c1ccccc1` (stereo not shown) [Compound 428], the IC50 ([1]; 4320 min) was < 100 µM, the IC50 ([2]; 4320 min) was 13 µM and the IC50 [3] was 1.6 µM. For the same molecule, the IC50 ([4]; Table 7, Molt-4, read-out: Cytotoxicity (IC50)) was 1 µM, the IC50 (SK-Mel-28 melanoma cells; Table 7, SK-Mel-28, read-out: Cytotoxicity (IC50)) was < 100 µM and the CC50 ([5]; Table 7, NHDF, read-out: Cytotoxicity (IC50)) was < 100 µM. For the same molecule, the CC50 ([6]; read-out: Cytotoxicity (IC50)) was < 100 µM, the “Cytotoxicity (IC50)” value [7] was “Non-Toxic” and the DNA cleavage (φX174 Form I DNA; [14]) was “greatly reduced in vitro DNA cleaving ability”. For the same molecule, the IC50 ([8]; Table 7, HL-60, read-out: Cytotoxicity (IC50)) was 1.6 µM, the IC50 ([9]; Table 7, Ovcar-3) was 13 µM and the IC50 ([10]; Table 7, Capan-1, read-out: Cytotoxicity (IC50)) was 6.3 µM. For the same molecule, the IC50 ([11]; Table 7, UCLA-P3) was 13 µM.
For `CCNC1COC(OC2C(OC)OC(C)C(NOC3CC(O)C(SC(=O)c4c(C)c(I)c(OC5OC(C)C(O)C(OC)C5O)c(OC)c4OC)C(C)O3)C2O)CC1OC` (stereo not shown) [Compound F-1], the “protection of DNA against DNase I” value [13] was “concentration-dependent protection”.
For `CCNC1COC(OC2C(OC)OC(C)C(NOC3CC(O)C(SC(=O)c4c(C)c(I)c(OC5OC(C)C(O)C(OC)C5O)c(OC)c4OC)C(C)O3)C2O)CC1OC` (stereo not shown) [Compound G-1], the “protection of DNA against DNase I” value [13] was “no protection at the same concentrations”.
Work on `COC1=C(C(=O)O)[C@H](C)[C@@]23O[C@]24c2cc(O)c5c(c2N[C@H]3C#C/C=C\C#C[C@H]14)C(=O)c1c(O)ccc(O)c1C5=O` [Dynemicin A] yielded an IC50 ([5]; Homo sapiens, control drugs) of 0.01 µM.
`N[C@@H](Cc1ccc(N(CCCl)CCCl)cc1)C(=O)O` [Melphelan] gave an IC50 ([5]; Homo sapiens) of 100 µM.
`CN(Cc1cnc2nc(N)nc(N)c2n1)c1ccc(C(=O)N[C@@H](CCC(=O)O)C(=O)O)cc1` [Methotrexate] gave an IC50 ([5]; Homo sapiens, control drugs) of 50 µM.
In the case of `CC(=O)O[C@H]1C(=O)[C@@]2(C)[C@H]([C@H](OC(=O)c3ccccc3)[C@]3(O)C[C@H](OC(=O)[C@H](O)[C@@H](NC(=O)c4ccccc4)c4ccccc4)C(C)=C1C3(C)C)[C@]1(OC(C)=O)CO[C@@H]1C[C@@H]2O` [Taxol], the IC50 ([5]; Homo sapiens, control drugs) is reported as 0.01 µM.
